The record followed here is patent US20060106102A1, “Napththalene derivatives which inhibit the cytokine or biological activity of microphage migration inhibitory factor (mif)” (priority 2002, published 2006).

Where a name gives a salt, the structure may show the parent alone. Read-outs that look alike come from different tables or passages of the source.

For test [1], the system named is recombinant human macrophage migration inhibitory factor (MIF)-induced proliferation of S112 human dermal fibroblasts. Put plainly: MIF-induced proliferation of S112 human dermal fibroblasts, 3H-thymidine incorporation. It counts as cell-based. Here is the method: The activity of each compound was studied in a bioassay utilising MIF-induced proliferation of human dermal fibroblasts. S112 human dermal fibroblasts were propagated in RPMI/10% foetal calf serum (FCS). Prior to experimentation, cells were seeded at 10^5 cells/ml in RPMI/0.1% BSA for 18 hours. At time point zero, culture medium was replaced with RPMI/10% FCS and treatments administered. Cells were treated with recombinant human macrophage migration inhibitory factor (MIF) 50 ng/ml (1.353×10^−9 M) and/or the compound at a 1 or 1000 molar ratio to the concentration of MIF. In some experiments the compound was combined with MIF at time point −30 minutes, prior to adding at time point zero. At time point 30 hours, cells were pulsed with […]. At time point 48 hours, cells were harvested using a semi-automated cell harvester. The radioactivity incorporated into DNA was determined by liquid scintillation counting, with results expressed as [^3H] thymidine incorporation. The proliferation of untreated cells was expressed as 100% and the effect of MIF and each compound expressed in relative %.
The activity of compound 5 was studied in a bioassay utilising MIF-induced proliferation of human dermal fibroblasts. S112 human dermal fibroblasts were propagated in RPMI/10% foetal calf serum (FCS). Prior to experimentation, cells were seeded at 10^5 cells/ml in RPMII/0.1% BSA for 18 hours. At time point zero, culture medium was replaced with RPMI/10% FCS and treatments administered. Cells were treated with recombinant human macrophage migration inhibitory factor (MIF) 50 ng/ml and/or compound 5 at a 1-1000 molar ratio to the concentration of MIF. At a time point 30 hours later, cells were pulsed with 1 μCi/well of ^3H-thymidine. At a time point 48 hours after commencement of the experiment, cells were harvested using a semi-automated cell harvester. The radioactivity incorporated into DNA was determined by liquid scintillation counting, with results expressed as [^3H] thymidine incorporation.

Test [2] deals with antigen-specific T cell activation (splenic T lymphocytes from mBSA-immunised mice). In words: antigen-specific (mBSA) activation of splenic T lymphocytes in vitro, 3H-thymidine incorporation. It counts as cell-based, C57BL6/J mice. Here is the method: After a further seven (7) days mice were killed and spleens collected aseptically into Hanks buffered saline solution (HBSS). A single cell suspension was prepared in Petri dishes by flushing DMEM through the organ using a 26G needle and 2 mL syringe. The resulting cell suspension was centrifuged for 5-7 minutes and supernatant discarded. Erythrocytes were lysed using a solution containing 0.579% NH4Cl, 0.000037% EDTA, and 0.1% NaHCO3 in a 37° C. water bath. Tubes were then filled with DMEM and centrifuged for 5-7 minutes. […] The specific stimulating antigen, mBSA, was then added at 10-50 μg/mL and plates incubated for 30 hours in a 37° C., 5% CO2 incubator. Tritiated^3H-thymidine was then added at a concentration of 0.5 μCi/well for a further 18 hours. Cells were harvested on a Packard cell harvester, and the harvested material added to 750 μL/tube scintillation fluid. Scintillation counts were read on a Wallac beta-emnission counter. […] Further compounds were also tested for their ability to inhibit antigen-specific T cell activation as a marker of the inhibition of the cytokine or biological activity of MIF using this assay.

The test system of test [3] is IL-1-induced COX-2 expression. Put plainly: IL-1-induced COX-2 expression in S112 human dermal fibroblasts (MIF-dependent event), flow cytometry. It counts as cell-based. Particulars: for inhibition at 1 µM: compound 1 uM. The procedure:
The activity of each compound was studied in a bioassay utilising MIF-dependent activation of human dermal fibroblasts. […] IL-1-induced COX-2 expression is therefore a MIF-dependent event. […] Prior to experimentation, cells were seeded at 10^5 cells/ml in RPMI/0.1% BSA for 18 hours. […] Cells permeabilised with 0.1% saponin were sequentially labelled with a mouse anti-human COX-2 monoclonal antibody and with sheep-anti-mouse F(ab)2 fragment labelled with fluoroscein isothiocyanate. Cellular fluorescence was determined using a flow cytometer. At least 5000 events were counted for each reading, each of which was performed in duplicate, and the results expressed in mean fluorescence intensity (MFI) after subtraction of negative control-labelled cell fluorescence. The effect of each compound was determined by subtracting the IL-1+compound-treated cell MFI from the IL-1-treated cell MFI and expressed as % inhibition. In each case the % inhibition of IL-1-induced COX2 expression is shown as the mean, or mean±SEM where results are available from multiple experiments.
A general note: In flow cytometry, cells or beads pass a laser one at a time.

[4] abbreviates: Mus musculus, T-cell, mBSA 10 μg/ml, read-out: EC50 (T cell activation suppressed by 50% compared to vehicle-only-treated cells).
[5] abbreviates: Mus musculus, T-cell, mBSA 50 μg/ml, read-out: EC50 (T cell activation suppressed by 50% compared to vehicle-only-treated cells).
Setting [6] is: mBSA 10 μg/ml, read-out: EC50 (T cell activation suppressed by 50% compared to vehicle-only-treated cells).
Setting [7] is: mBSA 50 μg/ml, read-out: EC50 (T cell activation suppressed by 50% compared to vehicle-only-treated cells).
Setting [8] is: Homo sapiens, Fibroblast, IL-1 0.1 ng/ml, 6 hours, S112 cells, read-out: % inhibition of IL-1-induced COX2 expression (Effect).
The mark [9] stands for this setting: Homo sapiens, Fibroblast, compound 50 uM, IL-1 0.1 ng/ml, 6 hours, S112 cells, read-out: % inhibition of IL-1-induced COX2 expression (Effect).

As for `Oc1cc2ccccc2cc1O` [Compound 1, 6,7-dihydroxynaphthalene], the inhibition at 0.13 µM in test [1] (Homo sapiens, Fibroblast, concentration 0.13 μM, rhMIF 50 ng/ml, S112 cells, read-out: % inhibition of proliferation compared to vehicle plus rhMIF-treated cells) turned out to be 47%.
For `O=C(O)c1ccc2c(S(=O)(=O)O)c(O)ccc2c1` [Compound 5, 2-carboxy-6-hydroxynaphthalene-5-sulfonic acid], in test [1] (1M ratio equivalent to MIF 50 ng/ml), the “effect on MIF-induced proliferation of human dermal fibroblasts (FIGS. 1 and 2)” value is “inhibition of MIF-induced proliferation”. The EC50 in test [2] (setting [4]) was 2.39 µM; in test [2] (setting [5]), > 100 µM.
Turning to `COc1ccc2cc([C@H](C)C(=O)O)ccc2c1` [Compound 8, S-(+)-6-methoxy-α-methyl-2-naphthalene acetic acid], the “% inhibition of proliferation compared to vehicle plus rhMIF-treated cells” value in test [1] (concentration 0.013 μM, rhMIF 50 ng/ml, S112 cells) came out at 4%; in test [1] (concentration 0.13 μM, rhMIF 50 ng/ml, S112 cells), 36%. Also, the figures for the EC50 in test [2] (setting [6]) and in test [2] (setting [7]) were 57.7 µM and > 100 µM, respectively.
In the case of `O=C(O)c1ccc2cc(O)ccc2c1` [Compound 9, 6-hydroxy-2-naphthanoic acid], in test [3] (setting [8]), the inhibition at 1 µM amounted to 7.5%. Moreover, the results for the EC50 in test [2] (setting [4]) and in test [2] (setting [5]) were 72.2 µM and 87.7 µM, respectively.
On to `CCCCCOS(=O)(=O)c1ccc2cc(O)c(O)cc2c1` [Compound 10, Pentyl 6,7-dihydroxy-2-naphthalenesulfonate], for which the inhibition at 50 µM in test [3] (setting [9]) turned out to be 27.7%. The EC50 is 10 µM in test [2] (setting [4]) and 16.7 µM in test [2] (setting [5]).
`CNc1ccc2cc(S(=O)(=O)O)ccc2c1` [Compound 11, 6-methylamino-2-naphthalene sulphonic acid, sodium salt]: in test [3] (Homo sapiens, Fibroblast, 6 h, read-out: % inhibition of IL-1-induced COX2 expression (Effect)), the inhibition at 25 µM came to 13.6%. In addition, the EC50 in test [2] (Mus musculus, T-cell, read-out: EC50 (T cell activation suppressed by 50% compared to vehicle-only-treated cells), mBSA 10 μg/ml) came to 0.02 µM; in test [2] (Mus musculus, T-cell, read-out: EC50 (T cell activation suppressed by 50% compared to vehicle-only-treated cells), mBSA 50 μg/ml), 3.34 µM.
For `O=C(O)c1ccc2cc3c(cc2c1)OCCO3` [Compound 14, 2,3-dihydronaphtho[2,3-b][1,4]dioxine-7-carboxylic acid], the inhibition at 50 µM in test [3] (setting [9]) turned out to be 24.1%. In addition, the EC50 worked out at 10.2 µM in test [2] (setting [4]) and 0.12 µM in test [2] (setting [5]).
As for `COC(=O)c1ccc2cc(O)ccc2c1` [Compound 15, Methlyl-6-hydroxy-2-naphthoate], the inhibition at 1 µM in test [3] (setting [8]) was 17.3%. Also, the EC50 in test [2] (setting [4]) is 51.7 µM; in test [2] (setting [5]), 21.5 µM.
`CCCCCCCCCCCCCCCCCCCCOC(=O)c1ccc2cc(O)ccc2c1` [Compound 19]: the inhibition at 10 µM in test [3] (Homo sapiens, Fibroblast, compound 10 uM, IL-1 0.1 ng/ml, 6 hours, S112 cells, read-out: % inhibition of IL-1-induced COX2 expression (Effect)) stood at 7.7%. For the same molecule, the results for the EC50 in test [2] (setting [4]) and in test [2] (setting [5]) were 10.8 µM and 0.95 µM, respectively.
With `O=C(O)CCCCCOC(=O)c1ccc2cc(O)ccc2c1` [Compound 22], the inhibition at 50 µM in test [3] (setting [9]) came out at 11.6%. Besides, the results for the EC50 in test [2] (setting [4]) and in test [2] (setting [5]) were 3.5 µM and > 100 µM, respectively.
Consider `CCOC(=O)c1ccc2cc(O)ccc2c1O` [Compound 28, Ethyl 1,6-dihydroxy-2-naphthaote], for which the inhibition at 25 µM in test [3] (Homo sapiens, Fibroblast, compound 25 uM, IL-1 0.1 ng/ml, 6 hours, S112 cells, read-out: % inhibition of IL-1-induced COX2 expression (Effect)) came out at 7.8%. Also, the results for the EC50 in test [2] (setting [4]) and in test [2] (setting [5]) were 6.4 µM and 1.18 µM, respectively.
As to `CCOC(=O)c1ccc2cc(SC(=O)N(C)C)ccc2c1OC` [Compound 33, Ethyl-6-[(dimethylamino)carbonyl]sulfanyl-1-methoxy-2-naphthoate], the inhibition at 50 µM in test [3] (setting [9]) amounted to 5.3%. The EC50 in test [2] (setting [4]) was determined as 12.5 µM; in test [2] (setting [5]) it was 0.54 µM.
As to `COC(=O)c1cc2cc(OC)ccc2cc1O` [Compound 35, methyl 2-hydroxy-6-methoxy-3-naphthoate], the EC50 in test [2] (setting [4]) is 8.89 µM; in test [2] (setting [5]) it was 0.22 µM.
Take `COc1ccc2cc(C)c(C(=O)O)cc2c1` [Compound 39, 7-methoxy-3-methyl-2-naphthoic acid: 2-amino-2-methylpropan-1-ol salt]: in test [3] (setting [9]), the inhibition at 50 µM turned out to be 13.3%. Moreover, the figures for the EC50 in test [2] (setting [4]) and in test [2] (setting [5]) were 49.3 µM and 89.8 µM, respectively.
For `COc1ccc2cc(C)c(C(=O)O)cc2c1Br` [Compound 40, 5-bromo-6-methoxy-2-methyl-3-naphthaoic acid] the same measures were 8.5%, 2.57 µM and 8.9 µM.
Consider `CCCCCNCc1cc2ccc(O)cc2cc1C(=O)O` [Compound 43, 6-hydroxy-[2-(1-pentylamino)methyl]-3-naphthoic acid], for which the “% inhibition of IL-1-induced COX2 expression (Effect)” value in test [3] (compound 50 uM, IL-1 0.1 ng/ml, 6 hours, S112 cells) came out at 24.10%. For the same molecule, the EC50 in test [2] (setting [6]) turned out to be 1.85 µM; in test [2] (setting [7]), 41.5 µM.
For the molecule `COC(=O)c1ccc2ccc(OC)cc2c1` [Compound 44, Methyl 7-methoxy-2-naphthoate ester], the inhibition at 50 µM in test [3] (setting [9]) was determined as 9.8%. Further, the results for the EC50 in test [2] (setting [4]) and in test [2] (setting [5]) were 12.7 µM and > 100 µM, respectively.
Take `COC(=O)c1ccc2ccc(O)cc2c1` [Compound 45, Methyl 7-hydroxy-2-naphanoate ester]: the EC50 was 14.8 µM in test [2] (setting [4]) and 32.4 µM in test [2] (setting [5]).
For `COC(=O)c1ccc2ccc(O)c([N+](=O)[O-])c2c1` [Compound 46, Methyl 7-hydroxy-8-nitro-2-naphthoate ester], the inhibition at 50 µM in test [3] (setting [9]) amounted to 9.3%. Also, in test [2] (setting [5]), the EC50 was determined as 28.1 µM.
With `COC(=O)c1ccc2c([N+](=O)[O-])c(O)ccc2c1` [Compound 47, Methyl 6-hydroxy-5-nitro-2-naphthoate ester], the values for the EC50 in test [2] (setting [4]) and in test [2] (setting [5]) were 13.1 µM and > 100 µM, respectively.
For `COC(=O)c1ccc2c(N)c(OC)ccc2c1` [Compound 49, Methyl 5-amino-6-methoxy-2-naphthoate ester] the same measures were 1.01 µM and 11.9 µM.
As for `COc1ccc2cc(C(CCCCCO)C(=O)O)ccc2c1` (stereo not shown) [Compound 58, 7-hydroxy-2-(6-methoxy-2-naphthyl)heptanoic acid], the EC50 in test [2] (setting [5]) is 22.3 µM.
For the molecule `COC(=O)c1ccc2cc(OC)cc(C)c2c1` [Compound 65, Methyl 6-methoxy-8-methyl-2-napthoate ester], the inhibition at 50 µM in test [3] (setting [9]) came to 50.4%. Moreover, the EC50 in test [2] (setting [5]) worked out at 18 µM.
`C[C@@H]1C[C@H]2[C@@H]3CCC4=CC(=O)C=C[C@]4(C)[C@@]3(F)[C@@H](O)C[C@]2(C)[C@@]1(O)C(=O)CO` [dexamethasone, reference compound]: the “% inhibition (IL-1 induced COX-2 expression)” value in test [3] (Table 2 experiment 2: dexamethasone alone, 10^−9 M) was 63.8%.
